Data published in US6437128B1, “Cribrostatins 3-5” (Arizona Board of Regents, priority 2001, dated 2002).
≈ marks a conversion by molar mass, not a printed value. Read-outs that look alike come from different tables or passages of the source.

What was measured:
[1] = tested on: Micrococcus luteus (Presque Isle 456); experiment: Antimicrobial disk diffusion; assay type: cell-based
[2] = tested on: P388 lymphocytic leukemia; experiment: in vitro murine P388 lymphocytic leukemia (PS) cell growth inhibition; assay type: cell-based; conditions: for GI50: Mouse Leukemia P388; for PS ED50 (P388 ED50): in vitro P388 lymphocytic leukemia
From the text: The fractions obtained from the 1988-89 recollection of Cribrochalina so. (See: Pettit, G. R.; Collins, J. C.; Herald, D. L.; Doubek, D. L.; Boyd, M. R.; Schmidt, J. M.; Hooper, J. N. A.; Tackett, L. P. Can. J. Cheim. 1992, 70, 1170-1175) beginning with the 195 g dichloromethane partition fraction were re-examined guided by bioassay results using the murine P388 lymphocytic leukemia.
(§1) Individual cell line response values are provided in the Experimental.

[3] = tested on: Streptococcus pneumoniae (ATCC 6303); experiment: Antimicrobial disk diffusion; assay type: cell-based
[4] = tested on: Bacillus subtilis (Presque Isle 620); experiment: Antimicrobial disk diffusion; assay type: cell-based
SF-295 (CNS) = experiment: ASU-CRI minipanel of human cancer cell lines; assay type: cell-based; conditions: CNS SF-295
From the text: as §1

NCI-H460 (Lung-NSC) = experiment: ASU-CRI minipanel of human cancer cell lines; assay type: cell-based
From the text: as §1

KM20L2 (Colon) = experiment: ASU-CRI minipanel of human cancer cell lines; assay type: cell-based
From the text: as §1

BXPC-3 (Pancreas-a) = experiment: ASU-CRI minipanel of human cancer cell lines; assay type: cell-based; conditions: Pancreas-a BXPC-3
From the text: as §1

OVCAR-3 (Ovarian) = experiment: ASU-CRI minipanel of human cancer cell lines; assay type: cell-based; conditions: Ovarian OVCAR-3
From the text: as §1

DU-145 (Prostate) = experiment: ASU-CRI minipanel of human cancer cell lines; assay type: cell-based; conditions: Prostate DU-145
From the text: as §1

MDA-MB-435 = experiment: NCI 60-cell screen; assay type: cell-based, human; conditions: averaged, quadruplicate, upper limit 10^−5 M
U251 = experiment: NCI 60-cell screen; assay type: cell-based, human; conditions: averaged, quadruplicate, upper limit 10^−5 M
SK-MEL-5 = experiment: NCI 60-cell screen; assay type: cell-based, human; conditions: averaged, quadruplicate, upper limit 10^−5 M
OVCAR4 = experiment: NCI 60-cell screen; assay type: cell-based, human; conditions: averaged, quadruplicate, upper limit 10^−5 M
[5] = tested on: Escherichia coli (ATCC 25922); experiment: Antimicrobial disk diffusion; assay type: cell-based
MALME-3M = experiment: NCI 60-cell screen; assay type: cell-based, human; conditions: averaged, quadruplicate, upper limit 10^−5 M
[6] = tested on: Enterococcus faecalis (ATCC 29212); experiment: Antimicrobial disk diffusion; assay type: cell-based
SR = experiment: NCI 60-cell screen; assay type: cell-based, human; conditions: averaged, quadruplicate, upper limit 10^−5 M
SN12C = experiment: NCI 60-cell screen; assay type: cell-based, human; conditions: averaged, quadruplicate, upper limit 10^−5 M
SF-539 = experiment: NCI 60-cell screen; assay type: cell-based, human; conditions: averaged, quadruplicate, upper limit 10^−5 M
HL-60 (TB) = experiment: NCI 60-cell screen; assay type: cell-based, human; conditions: averaged, quadruplicate, upper limit 10^−5 M
786-O = experiment: NCI 60-cell screen; assay type: cell-based, human; conditions: averaged, quadruplicate, upper limit 10^−5 M
[7] = tested on: Enterobacter cloacae (ATCC 13047); experiment: Antimicrobial disk diffusion; assay type: cell-based
SF-268 = experiment: NCI 60-cell screen; assay type: cell-based, human; conditions: averaged, quadruplicate, upper limit 10^−5 M
MDA-N = experiment: NCI 60-cell screen; assay type: cell-based, human; conditions: averaged, quadruplicate, upper limit 10^−5 M
NCI-H226 = experiment: NCI 60-cell screen; assay type: cell-based, human; conditions: averaged, quadruplicate, upper limit 10^−5 M
NCI-H522 = experiment: NCI 60-cell screen; assay type: cell-based, human; conditions: averaged, quadruplicate, upper limit 10^−5 M
RXF-393 = experiment: NCI 60-cell screen; assay type: cell-based, human; conditions: averaged, quadruplicate, upper limit 10^−5 M
MCF7 = experiment: NCI 60-cell screen; assay type: cell-based, human; conditions: averaged, quadruplicate, upper limit 10^−5 M
LOX IMVI = experiment: NCI 60-cell screen; assay type: cell-based, human; conditions: averaged, quadruplicate, upper limit 10^−5 M
[8] = tested on: Neisseria gonorrhoeae (ATCC 49226); experiment: Antimicrobial disk diffusion; assay type: cell-based
[9] = tested on: Cryptococcus neoformans (ATCC 90112); experiment: Antimicrobial disk diffusion; assay type: cell-based
UACC-62 = experiment: NCI 60-cell screen; assay type: cell-based, human; conditions: averaged, quadruplicate, upper limit 10^−5 M
SNB-75 = experiment: NCI 60-cell screen; assay type: cell-based, human; conditions: averaged, quadruplicate, upper limit 10^−5 M
OVCAR-3 = experiment: NCI 60-cell screen; assay type: cell-based, human; conditions: averaged, quadruplicate, upper limit 10^−5 M
HS578T = experiment: NCI 60-cell screen; assay type: cell-based, human; conditions: averaged, quadruplicate, upper limit 10^−5 M
[10] = tested on: Stenotrophomonas maltophilia (ATCC 13637); experiment: Antimicrobial disk diffusion; assay type: cell-based
[11] = tested on: Staphylococcus aureus (ATCC 29213); experiment: Antimicrobial disk diffusion; assay type: cell-based
CCRF-CEM = experiment: NCI 60-cell screen; assay type: cell-based, human; conditions: averaged, quadruplicate, upper limit 10^−5 M
K-562 = experiment: NCI 60-cell screen; assay type: cell-based, human; conditions: averaged, quadruplicate, upper limit 10^−5 M
NCI-H460 = experiment: NCI 60-cell screen; assay type: cell-based, human; conditions: averaged, quadruplicate, upper limit 10^−5 M
A549/ATCC = experiment: NCI 60-cell screen; assay type: cell-based, human; conditions: averaged, quadruplicate, upper limit 10^−5 M
RPMI-8226 = experiment: NCI 60-cell screen; assay type: cell-based, human; conditions: averaged, quadruplicate, upper limit 10^−5 M
COLO 205 = experiment: NCI 60-cell screen; assay type: cell-based, human; conditions: averaged, quadruplicate, upper limit 10^−5 M
[12] = tested on: NCI 60-cell in vitro panel; experiment: NCI 60-cell in vitro panel, mean panel; assay type: cell-based, human; conditions: average ±SEM from the 40 cell lines that yielded GI50 values for both 4a and 5
From the text: as §1

SF-295 = experiment: NCI 60-cell screen; assay type: cell-based, human; conditions: averaged, quadruplicate, upper limit 10^−5 M
MDA-MB-231/ATCC = experiment: NCI 60-cell screen; assay type: cell-based, human; conditions: averaged, quadruplicate, upper limit 10^−5 M
KM 12 = experiment: NCI 60-cell screen; assay type: cell-based, human; conditions: averaged, quadruplicate, upper limit 10^−5 M
OVCAR-8 = experiment: NCI 60-cell screen; assay type: cell-based, human; conditions: averaged, quadruplicate, upper limit 10^−5 M
T-47D = experiment: NCI 60-cell screen; assay type: cell-based, human; conditions: averaged, quadruplicate, upper limit 10^−5 M
PC-3 = experiment: NCI 60-cell screen; assay type: cell-based, human; conditions: averaged, quadruplicate, upper limit 10^−5 M
IGROV1 = experiment: NCI 60-cell screen; assay type: cell-based, human; conditions: averaged, quadruplicate, upper limit 10^−5 M
SW-620 = experiment: NCI 60-cell screen; assay type: cell-based, human; conditions: averaged, quadruplicate, upper limit 10^−5 M
HOP-92 = experiment: NCI 60-cell screen; assay type: cell-based, human; conditions: averaged, quadruplicate, upper limit 10^−5 M
ACHN = experiment: NCI 60-cell screen; assay type: cell-based, human; conditions: averaged, quadruplicate, upper limit 10^−5 M
HOP-62 = experiment: NCI 60-cell screen; assay type: cell-based, human; conditions: averaged, quadruplicate, upper limit 10^−5 M
[13] = tested on: Penicillin-resistant N. gonorrhoeae (clinical isolate); experiment: Antimicrobial disk diffusion; assay type: cell-based
MCF7/ADR-RES = experiment: NCI 60-cell screen; assay type: cell-based, human; conditions: averaged, quadruplicate, upper limit 10^−5 M
MOLT-4 = experiment: NCI 60-cell screen; assay type: cell-based, human; conditions: averaged, quadruplicate, upper limit 10^−5 M
[14] = tested on: Candida albicans (ATCC 90028); experiment: Antimicrobial disk diffusion; assay type: cell-based

Compound: C/C=C(/C)C(=O)OC[C@H]1C2=C(C=C3[C@H]4c5c(O)c(OC)c(C)c(O)c5C(=O)[C@@H](C(=O)N31)N4C)C(=O)C(C)=C(OC)C2=O [Cribrostatin 5, cribrostatin 5]
- Minimum inhibitory concentration ([1]; listed as 4b): 50-100 μg/disk
- GI50 [2]: 0.045 µg/mL (≈ 0.0778 µM)
- PS ED50 (P388 ED50) ([2]; listed as cribrostatin 5): 0.045 µg/mL
- Minimum inhibitory concentration ([3]; listed as 4b): * (No inhibition at 100 μg/disk)
- Minimum inhibitory concentration [4]: * (No inhibition at 100 μg/disk)
- GI50 (SF-295 (CNS)): 0.36 µg/mL (≈ 0.622 µM)
- GI50 (NCI-H460 (Lung-NSC)): 0.22 µg/mL (≈ 0.38 µM)
- GI50 (KM20L2 (Colon)): 0.14 µg/mL (≈ 0.242 µM)
- GI50 (BXPC-3 (Pancreas-a)): 0.29 µg/mL (≈ 0.501 µM)
- GI50 (OVCAR-3 (Ovarian)): 0.18 µg/mL (≈ 0.311 µM)
- GI50 (DU-145 (Prostate)): 0.30 µg/mL (≈ 0.519 µM)

Compound: cribrostatin 3
- negative log10 GI50 (MDA-MB-435): 5.74
- negative log10 GI50 (U251): 5.49
- negative log10 GI50 (SK-MEL-5): 5.96
- negative log10 GI50 (OVCAR4): 5.28
- Minimum inhibitory concentration [5]: * (No inhibition at 100 μg/disk)
- negative log10 GI50 (MALME-3M): 6.21
- Minimum inhibitory concentration [1]: * (No inhibition at 100 μg/disk)
- Minimum inhibitory concentration [6]: * (No inhibition at 100 μg/disk)
- negative log10 GI50 (SR): 5.47
- negative log10 GI50 (SN12C): 5.21
- negative log10 GI50 (SF-539): 5.32
- negative log10 GI50 (HL-60 (TB)): 5.51
- negative log10 GI50 (786-O): 5.23
- Minimum inhibitory concentration [7]: * (No inhibition at 100 μg/disk)
- negative log10 GI50 (SF-268): 5.20
- negative log10 GI50 (MDA-N): 5.72
- negative log10 GI50 (NCI-H226): 5.15
- negative log10 GI50 (NCI-H522): 5.41
- negative log10 GI50 (RXF-393): 5.31
- negative log10 GI50 (MCF7): 5.33
- negative log10 GI50 (LOX IMVI): 5.39
- Minimum inhibitory concentration [8]: 0.0975-0.195 μg/disk
- Minimum inhibitory concentration [9]: * (No inhibition at 100 μg/disk)
- negative log10 GI50 (UACC-62): 5.60
- negative log10 GI50 (SNB-75): 5.32
- negative log10 GI50 (OVCAR-3): 5.74
- negative log10 GI50 (HS578T): 5.20
- Minimum inhibitory concentration [10]: * (No inhibition at 100 μg/disk)
- Minimum inhibitory concentration [11]: * (No inhibition at 100 μg/disk)
- negative log10 GI50 (CCRF-CEM): 5.37
- negative log10 GI50 (K-562): 5.13
- negative log10 GI50 (NCI-H460): 5.52
- negative log10 GI50 (A549/ATCC): 5.46
- GI50 [2]: 2.49 µg/mL
- PS ED50 (P388 ED50) [2]: 2.5 µg/mL
- negative log10 GI50 (RPMI-8226): 5.07
- negative log10 GI50 (COLO 205): 5.23
- GI50 [12]: 4.27 µM
- negative log10 GI50 (SF-295): 5.44
- negative log10 GI50 (MDA-MB-231/ATCC): 5.06
- negative log10 GI50 (KM 12): 5.31
- negative log10 GI50 (OVCAR-8): 5.06
- negative log10 GI50 (T-47D): 5.19
- negative log10 GI50 (PC-3): 5.70
- Minimum inhibitory concentration [3]: * (No inhibition at 100 μg/disk)
- negative log10 GI50 (IGROV1): 5.14
- Minimum inhibitory concentration [4]: * (No inhibition at 100 μg/disk)
- negative log10 GI50 (SW-620): 5.44
- negative log10 GI50 (HOP-92): 5.02
- negative log10 GI50 (ACHN): 5.02
- negative log10 GI50 (HOP-62): 5.27
- GI50 (SF-295 (CNS)): >1 µg/mL
- GI50 (NCI-H460 (Lung-NSC)): >1 µg/mL
- GI50 (KM20L2 (Colon)): >1 µg/mL
- GI50 (BXPC-3 (Pancreas-a)): >1 µg/mL
- GI50 (OVCAR-3 (Ovarian)): 0.77 µg/mL
- GI50 (DU-145 (Prostate)): >1 µg/mL
- Minimum inhibitory concentration [13]: 0.39-0.78 μg/disk
- negative log10 GI50 (MCF7/ADR-RES): 5.34
- negative log10 GI50 (MOLT-4): 5.31
- Minimum inhibitory concentration [14]: * (No inhibition at 100 μg/disk)
